From US7098220B2, “Imidazopyridine derivatives, preparation method and pharmaceutical compositions containing same” (Les Laboratoires Servier, priority 2002, dated 2006)

What was measured:
AMPK = AMPK activity in a cell model: hepatocytes isolated from rats; format: cell-based, rat; conditions: 500 μM, after 30 minutes, SAMS peptide phosphorylation with [γ-32P]-ATP
Method: AMPK Activity in a Cell Model: Hepatocytes Isolated from Rats
The hepatocytes are isolated according to the technique of Berry and Friend [J. Cell Biol, 43, 506–520 (1969)]. The AMPK activity was measured according to the method described by Davies el al. [Eur. J. Biochem., 186, 123–128 (1989)]. The latter involves phosphorylation starting from [γ-^32P]-ATP of a peptide substrate (SAMS), based on the sequence surrounding the site phosphorylated by the AMPK of the ACC. The reaction for measuring the AMPK activity ends with the deposition of an aliquot of the reaction medium on a phosphocellulose paper (Whatman P81), on which the SAMS peptide is fixed and the radioactivity of which is measured after washing.
By way of example, the compound of Example 4 activates AMPK, after 30 minutes at a concentration of 500 μM, by 312% (compared with the base value), whereas the same concentration of AICA riboside, used as reference, under the same conditions, activates it by 178%.

obese ob/ob mouse = experiment: Hypolipaemic activity in the obese ob/ob mouse; format: in vivo
Method: The products of the invention were tested in vivo in the obese ob/ob mouse, used as a model of obesity-associated insulin resistance.

SMILES	AMPK activation (compared with the base value) (AMPK)	reduction of triglycerides (obese ob/ob mouse; 125 mg/kg per os)	reduction of triglycerides (obese ob/ob mouse; 250 mg/kg per os)
NC(=O)c1ncn([C@@H]2O[C@H](CO)[C@@H](O)[C@H]2O)c1N [AICA riboside]	178%	–	–
Nc1nc2cccnc2n1C1CCCCCC1 [Example 4, 3-Cycloheptyl-3H-imidazo[4,5-b]pyridine-2-amine]	312%	significantly reduces the triglycerides	–
CN(C)C(=N)N=C(N)N [metformin]	–	–	the same reduction is obtained
